Data taken from US20100160208A1, “Pharmaceutical composition” (Antisense Pharma GmbH, priority 2003, published 2010).

Columns and labels:
glioma cell line A-172 = test: Cell-mediated cytotoxicity (CARE-LASS) assay, LAK effector cells on A-172 target cells; type: cell-based; settings: Seq. Id. No. 30 5 microM
Description: (§1) Cell-mediated cytotoxicity was quantified by the CARE-LASS assay (Lichtenfels et al. 1994) using the NSCLC (non small cell lung carcinoma cell) line NCI-H661, the glioma cell line A-172, and the pancreatic cancer cell line Hup-T3 as target cells. NCI-H661 cells were pretreated with 5 μM TGF (transforming growth factor)-beta 1 specific antisense phosphorothioate oligodeoxynucleotide (PTO) Seq. Id. No. 14. A-172 and Hup-T3 cells were pretreated with 5 μM TGF-beta 2 specific antisense phosphorothioate oligodeoxynucleotide Seq. Id. No. 30 in medium at 5% CO2 and 37° C. for 3 days according to the cell line suppliers' instructions. Additionally, for Hup-T3 cells 3 μg/ml Lipofectin® were used to enhance cellular uptake of the PTO. Untreated cells and cells treated with 3 μg/ml Lipofectin® were used as controls.
Lymphokine activated killer cells (LAK cells) were used as effector cells. LAK cells were generated by a 3 day pretreatment of 5×10^6 PBMC from healthy volunteers with 10 ng/ml rh IL-2 (recombinant human interleukin 2) in 4 ml RPMI 1640 medium supplemented with 10% fetal calf serum at 5% CO2 and 37° C. One part of the effector cells was incubated additionally with rh TGF-[…] to mimic the presence of tumor cells ([…] rh TGF-[…]1 for NCI-H661, […] rh TGF-[…]2 for A-172 and Hup-T3). The other part of cells was incubated without additional treatment.
Effector cells were incubated with the target cells with and without cytostatic drugs for 4 h. The supraaditive effect respectively the inhibition was calculated by subtracting the specific cell lysis, of the control from the specific cell lysis of the chemotherapeutic agent. Taking into account the sign this difference is summed up with the specific lysis of the inhibitor of TGF-beta, as depicted in the figures. In case the specific lysis of the combination of a chemotherapeutic agent with the TGF-beta inhibitor was higher than this sum, this was interpreted as supraaditive effect. In case the specific lysis of this combination was smaller than the sum this was interpreted as inhibition.

[1] = tested on: pancreatic cancer cell line Hup-T3; test: Cell-mediated cytotoxicity (CARE-LASS) assay, LAK effector cells on Hup-T3 target cells; type: cell-based; settings: FIG. 6; effector:target 10:1; Seq. Id. No. 30 5 microM; gemzar 20 μg/ml
Description: Cell-mediated cytotoxicity was quantified by the […] assay (Lichtenfels et al. 1994) using the NSCLC (non small cell lung carcinoma cell) line NCI-H661, the glioma cell line A-172, and the pancreatic cancer cell line Hup-T3 as target cells. […] Id. No. 14. […] Id. […] Additionally, for Hup-T3 cells 3 μg/ml Lipofectin® were used to enhance cellular uptake of the PTO. Untreated cells and cells treated with 3 μg/ml Lipofectin® were used as controls. Lymphokine activated killer cells (LAK cells) were used as effector cells. […] The other part of cells was incubated without additional treatment. Effector cells were incubated with the target cells with and without cytostatic drugs for 4 h. The supraaditive effect respectively the inhibition was calculated by subtracting the specific cell lysis, of the control from the specific cell lysis of the chemotherapeutic agent. Taking into account the sign this difference is summed up with the specific lysis of the inhibitor of TGF-beta, as depicted in the figures. In case the specific lysis of the combination of a chemotherapeutic agent with the TGF-beta inhibitor was higher than this sum, this was interpreted as supraaditive effect. In case the specific lysis of this combination was smaller than the sum this was interpreted as inhibition.

[2] = tested on: NSCLC (non small cell lung carcinoma cell) line NCI-H661; test: Cell-mediated cytotoxicity (CARE-LASS) assay, LAK effector cells on NCI-H661 target cells; type: cell-based; settings: FIG. 9; effector:target 1.25:1; Seq. Id. No. 14 5 microM; taxotere 0.37 μg/ml
Description: as §1
Lymphokine activated killer cells (LAK cells) were used as effector cells. LAK cells were generated by a 3 day pretreatment of 5×10^6 PBMC from healthy volunteers with 10 ng/ml rh IL-2 (recombinant human interleukin 2) in 4 ml RPMI 1640 medium supplemented with 10% fetal calf serum at 5% CO2 and 37° C. […]
Effector cells were incubated with the target cells with and without cytostatic drugs for 4 h. The supraaditive effect respectively the inhibition was calculated by subtracting the specific cell lysis, of the control from the specific cell lysis of the chemotherapeutic agent. […]

[3] = tested on: anaplastic astrocytoma, WHO grade III; test: Clinical phase I/II study, intratumoral Seq. Id. No. 30 in patients with anaplastic astrocytoma; type: in vivo, human
Text: (§2) Clinical studies represented herein were primarily designed as safety studies and were approved by the local ethic committees and performed in accordance with the current international declaration of Helsinki for human experimentation and GCP and had to sign a written informed consent prior to recruitment.
(§3) The treatment with the antineoplastic agent followed routine schedules if nothing else is mentioned. Before the treatment with an TGF-beta antagonist, the antisense oligonucleotide of TGF-beta, with Seq. No. 30 the patients were selected according to the following criteria.
(§4) Patients had high grade gliom, either anaplastic astrocytome, WHO grade III, or glioblastoma, WHO grade IV, refractory to or recurrent after standard therapy (surgery, radiotherapy and different therapies with antineoplastic substances). Patients had not received antineoplastic agents within 10 days prior to the administration of the antagonist. Patients were between 18 and 75 years old. Karnofsky performance status (KPS) was at least 70%. Patients with clinically significant acute infections, cardiovascular abnormalities or poorly controlled seizures and pregnant and lactating females were excluded.
(§5) Surgical planning was based on computer tomography or magnetic resonance images. The perforated part of the catheter was placed in the solid, enhancing area of the tumor. Ventricles, cysts, resection cavities from prior surgical interventions, blood vessels and eloquent brain areas had to be avoided by the catheter trajectory. The catheter was introduced through a standard burr hole into the center of the largest tumor lesion. The distal end of the catheter was passed several centimetres under the galea through the skin and filled with saline. TGF-beta 2 specific antisense oligonucleotide with Seq. Id. No. 30 was administered intratumorally as a continuous high-flow microperfusion using an external pump system, Graseby 3200 (Smith Medical, London, GBM). The application system was removed after the end of the infusion. For safety assessment patients were followed up for 28 days. Post-study MRI and survival data until death were collected by the investigators.
Comparison of survival data of patients treated with antineoplastic agents in combination with antagonists of factors negatively influencing the immune system (here: an antisense oligonucleotide of TGF-beta with the sequence Id. No. 30) to literature data for treatment with antineoplastic alone. Survival time is given from start of first chemotherapy after tumor recurrence. Median overall survival time of all patients treated with antineoplastic agents and TGF-beta 2 specific antisense oligonucleotide with Seq. Id. No. 30 (anaplastic astrocytom: 8 patients, glioblastoma, 23 patients) are compared to the most current literature data (Theodosopoulos, P. V. et al. 2001).
Reduction of tumor volumes of patients 04 and 17 was more than 80%. Tumor volume was assessed by measurement of the largest cross-sectional diameter of the enhancing lesion in the first layer and the largest cross-sectional diameter perpendicular to the first in the same plane and layer. For the third dimension, the largest cross-sectional diameter of all further planes perpendicular to the first one was determined.

[4] = tested on: glioblastoma, WHO grade IV; test: Clinical phase I/II study, intratumoral Seq. Id. No. 30 in patients with glioblastoma; type: in vivo, human
Text: as §2, §3, §4
as §5, with “Post-study MRI and survival data until death were collected by the investigators.” left out

[5] = FIG. 4, effector:target 20:1, BCNU 4 μM
[6] = FIG. 5, effector:target 1.25:1, CCNU 10 μM
[7] = FIG. 10, effector:target 5:1, procarbacine 3 nmol/ml
[8] = FIG. 7, effector:target 10:1, temozolomide 50 μM
[9] = FIG. 8, effector:target 2.5:1, vincristine 0.04 μmol/ml
[10] = calculated after start of chemotherapy, patients treated with antineoplastic agents and Seq. Id. No. 30
[11] = oligonucleotide following chemotherapy (mainly temozolomide)

## O=NN(CCCl)C(=O)NCCCl [BCNU, N,N′-bis(2-chlorethyl)-N-nitroso-urea, reference compound]
Glioma cell line A-172; [5]
  specific lysis of tumor cells: 15.6%

## O=NN(CCCl)C(=O)NC1CCCCC1 [CCNU, 1-(2-Chloroethyl)-3-cyclohexyl-1-nitrosourea, reference compound]
Glioma cell line A-172; [6]
  specific lysis of tumor cells: 0.5%

## Nc1ccn([C@@H]2O[C@H](CO)[C@@H](O)C2(F)F)c(=O)n1 [gemzar, reference compound]
[1]
  specific lysis of tumor cells: 34.5%

## CNNCc1ccc(C(=O)NC(C)C)cc1 [procarbacine, reference compound]
Glioma cell line A-172; [7]
  specific lysis of tumor cells: 6.1%

## CC(=O)O[C@@]12CO[C@@H]1C[C@H](O)[C@@]1(C)C(=O)[C@H](O)C3=C(C)[C@@H](OC(=O)[C@H](O)[C@@H](NC(=O)OC(C)(C)C)c4ccccc4)C[C@@](O)([C@@H](OC(=O)c4ccccc4)[C@H]21)C3(C)C [taxotere, reference compound]
[2]
  specific lysis of tumor cells: 30.5%

## Cn1nnc2c(C(N)=O)ncn2c1=O [temozolomide, 3,4-dihydro-3-methyl-4-oxoimidazo->5,1d′1,2,3,4-tetrazin-8-carboximide, reference compound]
Glioma cell line A-172; [8]
  specific lysis of tumor cells: 31.3%

## CC[C@]1(O)C[C@H]2CN(CCc3c([nH]c4ccccc34)[C@@](C(=O)OC)(c3cc4c(cc3OC)N(C=O)[C@H]3[C@@](O)(C(=O)OC)[C@H](OC(C)=O)[C@]5(CC)C=CCN6CC[C@]43[C@@H]65)C2)C1 [vincristine, reference compound]
Glioma cell line A-172; [9]
  specific lysis of tumor cells: 12.6%

## CGGCATGTCTATTTTGTA [Seq. Id. No. 30]
[1]
  specific lysis of tumor cells: 59.5%
[3]; 1. Example, one patient, 21 months after first application, assessed by 3 independent specialists
  tumor response: complete response
[3]; 1. Example, one patient, one cycle 10 μM, 4 μL/min, 1.42 mg in 4 days intratumorally after ACNU/tenoposide, temozolomide, Caelyx
  overall survival after first recurrence: 195 weeks
[3]; 1. Example, one patient, one cycle intratumorally after prior chemotherapy
  overall survival after diagnosis of anaplastic astrocytoma: 208 weeks
[3]; 2. Example, one patient, magnetic resonance image 19.4 months after start of oligonucleotide treatment, central reading, partial response
  tumor reduction: 83%
[3]; FIG. 3, Seq. Id. No. 30 following temozolomide, from start of first chemotherapy after tumor recurrence, 3 patients
  median overall survival time: 146.6 weeks
[3]; all anaplastic astrocytoma patients
  mean overall survival: 90 weeks
[3]; [10]
  median overall survival in our study: 147 weeks
[3]; combination of Seq. Id. No. 30 and at least one further antineoplastic agent (e.g. temozolomide)
  mean overall survival: 146.6 weeks
[3]; [11]
  median overall survival times: about 147 weeks
[3]; patients 04 and 17
  Reduction of tumor volumes: more than 80%
Glioma cell line A-172; [5]
  specific lysis of tumor cells: 29.4%
Glioma cell line A-172; [6]
  specific lysis of tumor cells: 4.4%
Glioma cell line A-172; [8]
  specific lysis of tumor cells: 39.2%
Glioma cell line A-172; [9]
  specific lysis of tumor cells: 13.9%
[4]; FIG. 3, Seq. Id. No. 30 following temozolomide, from start of first chemotherapy after tumor recurrence, 10 patients
  median overall survival time: 45.1 weeks
[4]; [10]
  median overall survival in our study: 42.4 weeks
[4]; [11]
  median overall survival times: 45 weeks

## CTGATGTGTTGAAGAACA (chemistry not given here) [Seq. Id. No. 14]
[2]
  specific lysis of tumor cells: 65.3%
Glioma cell line A-172; [7]
  specific lysis of tumor cells: 16.4%
